Experiments:
[1] = target: T1, GAL4-PPARγ chimeric nuclear receptor (human PPARγ ligand binding region) (Homo sapiens, UniProt P37231); assay: Transactivation assay of PPARγ by transient gene transfer (GAL4-PPARγ luciferase reporter); format: cell-based; conditions: HEK293EBNA cells, 24 hr; concentration showing 50% of efficacy; activity relative to pioglitazone 10 μmol/L = 100%
T1 construct: expressed in transfected cells; host or cells: HEK293EBNA cells
T1 sequence (P37231 174-475 isoform P37231-2): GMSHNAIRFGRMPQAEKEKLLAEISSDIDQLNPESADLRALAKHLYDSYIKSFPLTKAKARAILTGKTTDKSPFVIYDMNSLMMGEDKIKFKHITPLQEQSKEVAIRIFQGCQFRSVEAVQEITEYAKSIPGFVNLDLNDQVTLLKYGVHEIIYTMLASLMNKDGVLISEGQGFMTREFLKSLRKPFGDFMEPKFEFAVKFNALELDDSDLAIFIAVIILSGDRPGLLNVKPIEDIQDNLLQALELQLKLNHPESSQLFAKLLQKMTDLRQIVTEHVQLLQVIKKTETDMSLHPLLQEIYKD
Experimental: The agonist activity of compound (I) to PPARγ was determined by a transactivation assay method using a chimeric nuclear receptor of a DNA binding region of a yeast transcription factor GAL4 and a PPARγ ligand binding region. Specifically, the PPARγ agonist activity of compound (I) was evaluated by the following method based on the method of Lehmann et al. (J Biol. Chem., 1995, vol. 270, page 12953).
HEK293EBNA cells cultured in Dulbecco's Modified Eagle medium (Invitrogen) containing 10 v/v % fetal calf serum (Invitrogen) were used. 30 mL of the above-mentioned cells (density: 1×10^5 cells/mL) were inoculated in a […] culture dish (Iwaki Glass), and cultured overnight. Using SuperFect Transfection Reagent (QIAGEN), a plasmid expressing a GAL4-PPARγ chimeric nuclear receptor fusing 174-475 amino acids, which are human PPARγ ligand binding region, and 1-147 amino acids, which are GAL4 DNA binding region, and a reporter plasmid expressing a GAL4 responsive luciferase were transiently introduced into the cells at a proportion of 4:1. After 5 hr from gene introduction, the cells were detached from the culture dish, and the detached cells (density: 2×10^4 cells/mL) were inoculated by 100 μL in each well of a 96 well white plate (SUMITOMO BAKELITE), and cultured overnight. The medium was removed, compound (I) diluted in various concentrations with serum-free Dulbecco's Modified Eagle medium was added by 100 μL, and the mixture was reacted under a 5% carbon dioxide gas stream (5% CO2) at 37° C. for 24 hr. On the other hand, as a positive control, 10 μmol/L of pioglitazone (100 μL) was added, and the mixture was reacted under a 5% carbon dioxide gas stream (5% CO2) at 37° C. for 24 hr. As a substrate of luciferase, 100 μL of Steady-Glo (Promega) was added to each well and the mixture was thoroughly stirred. Immediately thereafter, the chemical luminescence due to luciferase was measured using TopCount NTX (Packard).
The agonist activity (activity rate (%)) of compound (I) to PPARγ was calculated according to the following formula, as a relative activity when the agonist activity on addition of pioglitazone (10 μmol/L) was 100%.

[2] = test system: spontaneously hypertensive rats (SHR); assay: Antihypertensive action by telemetry method; format: in vivo, rat; conditions: oral once a day for 4 days, 24 hr averages
Text: A telemetry transmitter was indwelled in the abdominal artery of spontaneously hypertensive rats (SHR), and the blood pressure and heart rate were monitored. The rats were acclimated and reared for 4 weeks or more, and only the rats with hypertension were used for the test. Before drug administration, the rats were grouped such that the blood pressure and heart rate of each rat would be of the same levels between the groups. A solvent (0.5% methylcellulose solution) and a test compound were repeatedly administered orally once a day for 4 days. The average systolic blood pressure for 24 hr, average diastolic blood pressure for 24 hr and average heart rate for 24 hr were calculated on each administration day.

CCCc1nc2c(C)cccc2n1Cc1ccc2c(c1)CCc1ccccc1N2Cc1noc(=O)[nH]1 [Compound 6, 2-(4-methyl-2-propylbenzimidazol-1-yl)methyl-5-(5-oxo-4,5-dihydro-1,2,4-oxadiazol-3-yl)methyl-10,11-dihydro-5H-dibenzo[b,f]azepine]
EC50 [1]: 97 nM

CCc1nc2c(Cl)cc(C)nc2n1Cc1ccc2c(c1)CCc1ccccc1N2C(C)c1nnn[nH]1 (stereo not drawn) [Compound 25, 2-(7-chloro-2-ethyl-5-methyl-3H-imidazo[4,5-b]pyridin-3-yl)methyl-5-[1-(1H-tetrazol-5-yl)ethyl]-10,11-dihydro-5H-dibenzo[b,f]azepine]
antihypertensive action (blood pressure, telemetry) [2]: antihypertensive action | EC50 [1]: 233 nM

CCc1nc2c(C)cc(C)nc2n1Cc1ccc2c(c1)CCc1ccccc1/C2=C(\C)c1nn[nH]n1 [Compound 62, (Z)-2-(2-ethyl-5,7-dimethyl-3H-imidazo[4,5-b]pyridin-3-yl)methyl-5-[1-(1H-tetrazol-5-yl)ethylidene]-10,11-dihydro-5H-dibenzo[a,d]cycloheptene]
EC50 [1]: 251 nM

CCc1nc2c(C)cc(C)nc2n1Cc1ccc2c(c1)CCc1ccccc1/C2=C\c1nnn[nH]1 [Compound S16, (E)-2-(2-ethyl-5,7-dimethyl-3H-imidazo[4,5-b]pyridin-3-yl)methyl-5-(1H-tetrazol-5-yl)methylene-10,11-dihydro-5H-dibenzo[a,d]cycloheptene]
antihypertensive action (blood pressure, telemetry) [2]: antihypertensive action | EC50 [1]: 305 nM

C/C(=C1/c2ccccc2CCc2cc(Cn3c(C4CC4)nc4c(C)ccnc43)ccc21)c1nnn[nH]1 [Compound 100, (E)-2-(2-cyclopropyl-7-methyl-3H-imidazo[4,5-b]pyridin-3-yl)methyl-5-[1-(1H-tetrazol-5-yl)ethylidene]-10,11-dihydro-5H-dibenzo[a,d]cycloheptene]
antihypertensive action (blood pressure, telemetry) [2]: antihypertensive action | EC50 [1]: 1020 nM

CCOc1nc2c(Cl)cccc2n1Cc1ccc2c(c1)COc1ccccc1/C2=C(/C)c1noc(=O)[nH]1 [Compound 146, (Z)-8-(4-chloro-2-ethoxybenzimidazol-1-yl)methyl-11-[1-(5-oxo-4,5-dihydro-1,2,4-oxadiazol-3-yl)ethylidene]-6,11-dihydrodibenzo[b,e]oxepine]
antihypertensive action (blood pressure, telemetry) [2]: antihypertensive action | EC50 [1]: 336 nM

CCCc1nc2c(C)cccc2n1Cc1ccc2c(c1)CCc1ccccc1N2C(C)c1noc(=O)[nH]1 (stereo not drawn) [Compound 18, 2-(4-methyl-2-propylbenzimidazol-1-yl)methyl-5-[1-(5-oxo-4,5-dihydro-1,2,4-oxadiazol-3-yl)ethyl]-10,11-dihydro-5H-dibenzo[b,f]azepine]
EC50 [1]: 48 nM

CCCc1nc2c(C)cccc2n1Cc1ccc2c(c1)CCc1ccccc1/C2=C/c1noc(=O)[nH]1 [Compound 51, (Z)-2-(4-methyl-2-propylbenzimidazol-1-yl)methyl-5-(5-oxo-4,5-dihydro-1,2,4-oxadiazol-3-yl)methylene-10,11-dihydro-5H-dibenzo[a,d]cycloheptene]
EC50 [1]: 94 nM

CCc1nc2c(Cl)cc(C)nc2n1Cc1ccc2c(c1)OCc1ccccc1/C2=C\c1noc(=O)[nH]1 [Compound 106, (E)-3-(7-chloro-2-ethyl-5-methyl-3H-imidazo[4,5-b]pyridin-3-yl)methyl-11-(5-oxo-4,5-dihydro-1,2,4-oxadiazol-3-yl)methylene-6,11-dihydrodibenzo[b,e]oxepine]
EC50 [1]: 310 nM

CCCc1nc2c(C)cccc2n1Cc1ccc2c(c1)CCc1ccccc1/C2=C(/C)c1noc(=O)[nH]1 [Compound 83, (E)-2-(4-methyl-2-propylbenzimidazol-1-yl)methyl-5-[1-(5-oxo-4,5-dihydro-1,2,4-oxadiazol-3-yl)ethylidene]-10,11-dihydro-5H-dibenzo[a,d]cycloheptene]
EC50 [1]: 342 nM

CCOc1nc2cccnc2n1Cc1ccc2c(c1)CCc1ccccc1/C2=C(/C)c1noc(=O)[nH]1 [Compound 91, (E)-2-(2-ethoxy-3H-imidazo[4,5-b]pyridin-3-yl)methyl-5-[1-(5-oxo-4,5-dihydro-1,2,4-oxadiazol-3-yl)ethylidene]-10,11-dihydro-5H-dibenzo[a,d]cycloheptene]
EC50 [1]: 1520 nM

CCCc1nc(CC)c(C(=O)OCC)n1Cc1ccc2c(c1)CCc1ccccc1N2C(C)c1nnn[nH]1 (stereo not drawn) [Compound 28, 2-(5-ethoxycarbonyl-4-ethyl-2-propyl-1H-imidazol-1-yl)methyl-5-[1-(1H-tetrazol-5-yl)ethyl]-10,11-dihydro-5H-dibenzo[b,f]azepine]
EC50 [1]: 325 nM

C/C(=C1/c2ccccc2COc2cc(Cn3c(C4CC4)nc4c(C)cc(C)nc43)ccc21)c1noc(=O)[nH]1 [Compound 112, (E)-3-(2-cyclopropyl-5,7-dimethyl-3H-imidazo[4,5-b]pyridin-3-yl)methyl-11-[1-(5-oxo-4,5-dihydro-1,2,4-oxadiazol-3-yl)ethylidene]-6,11-dihydrodibenzo[b,e]oxepine]
EC50 [1]: 1130 nM

CCc1nc2c(C)cc(C)nc2n1Cc1ccc2c(c1)CCc1ccccc1/C2=C/c1nnn[nH]1 [Compound S17, (Z)-2-(2-ethyl-5,7-dimethyl-3H-imidazo[4,5-b]pyridin-3-yl)methyl-5-(1H-tetrazol-5-yl)methylene-10,11-dihydro-5H-dibenzo[a,d]cycloheptene]
EC50 [1]: 1290 nM

CCCc1nc2c(C)cccc2n1Cc1ccc2c(c1)CCc1ccccc1C2Cc1noc(=O)[nH]1 (stereo not drawn) [Compound 64, 2-(4-methyl-2-propylbenzimidazol-1-yl)methyl-5-(5-oxo-4,5-dihydro-1,2,4-oxadiazol-3-yl)methyl-10,11-dihydro-5H-dibenzo[a,d]cycloheptene]
EC50 [1]: 73 nM

Cc1cc(C)c2nc(C3CC3)n(Cc3ccc4c(c3)CCc3ccccc3N4C(C)c3noc(=O)[nH]3)c2n1 (stereo not drawn) [Compound 70, 2-(2-cyclopropyl-5,7-dimethyl-3H-imidazo[4,5-b]pyridin-3-yl)methyl-5-[1-(5-oxo-4,5-dihydro-1,2,4-oxadiazol-3-yl)ethyl]-10,11-dihydro-5H-dibenzo[b,f]azepine]
EC50 [1]: 53 nM

Cc1cc(C)c2nc(C3CC3)n(Cc3ccc4c(c3)CCc3ccccc3N4Cc3nnn[nH]3)c2n1 [Compound S14, 2-(2-cyclopropyl-5,7-dimethyl-3H-imidazo[4,5-b]pyridin-3-yl)methyl-5-(1H-tetrazol-5-yl)methyl-10,11-dihydro-5H-dibenzo[b,f]azepine]
EC50 [1]: 4130 nM

CCc1nc2c(C(F)(F)F)cc(C)nc2n1Cc1ccc2c(c1)CCc1ccccc1/C2=C\c1noc(=O)[nH]1 [Compound 37, (E)-2-(2-ethyl-5-methyl-7-trifluoromethyl-3H-imidazo[4,5-b]pyridin-3-yl)methyl-5-(5-oxo-4,5-dihydro-1,2,4-oxadiazol-3-yl)methylene-10,11-dihydro-5H-dibenzo[a,d]cycloheptene]
EC50 [1]: 415 nM

CCCc1nc2c(C(F)(F)F)cc(C)nc2n1Cc1ccc2c(c1)CCc1ccccc1/C2=C/c1noc(=O)[nH]1 [Compound 57, (Z)-2-(5-methyl-2-propyl-7-trifluoromethyl-3H-imidazo[4,5-b]pyridin-3-yl)methyl-5-(5-oxo-4,5-dihydro-1,2,4-oxadiazol-3-yl)methylene-10,11-dihydro-5H-dibenzo[a,d]cycloheptene]
EC50 [1]: 440 nM

CCCc1nc2c(C)cccc2n1Cc1ccc2c(c1)CCc1ccccc1/C2=C\c1noc(=O)[nH]1 [Compound 33, (E)-2-(4-methyl-2-propylbenzimidazol-1-yl)methyl-5-(5-oxo-4,5-dihydro-1,2,4-oxadiazol-3-yl)methylene-10,11-dihydro-5H-dibenzo[a,d]cycloheptene]
EC50 [1]: 103 nM

From US8242151B2, “Tricyclic compounds” (Kyowa Hakko Kirin Co., Ltd., priority 2007, dated 2012)
